In brackets after ≈: the same amount, converted by molar mass.
How the values were obtained:
Format in all cases: functional
Staphylococcus aureus [1] = test: Antimicrobial activity against heterogeneous vancomycin-intermediate Staphylococcus aureus SA873 after 48 hrs by macro Etest method; settings: SA873, 48 h
Staphylococcus aureus [2] = test: Antimicrobial activity against vancomycin-intermediate Staphylococcus aureus SA770 after 48 hrs by macro Etest method; settings: SA770, 48 h
Staphylococcus aureus [3] = test: Antimicrobial activity against vancomycin-intermediate Staphylococcus aureus SA1287 after 48 hrs by macro Etest method; settings: SA1287, 48 h
Staphylococcus aureus [4] = test: Antimicrobial activity against heterogeneous vancomycin-intermediate Staphylococcus aureus SA618 after 48 hrs by macro Etest method; settings: SA618, 48 h
Staphylococcus aureus [5] = test: Antimicrobial activity against vancomycin-susceptible Staphylococcus aureus SA662 after 48 hrs by macro Etest method; settings: SA662, 48 h
Staphylococcus aureus [6] = test: Antimicrobial activity against vancomycin-susceptible Staphylococcus aureus SA2089 after 48 hrs by macro Etest method; settings: SA2089, 48 h
Staphylococcus aureus [7] = test: Antimicrobial activity against vancomycin-intermediate Staphylococcus aureus SA1984 after 48 hrs by macro Etest method; settings: SA1984, 48 h

Structure (SMILES) | MIC (Staphylococcus aureus [1]) [µg/mL] | MIC (Staphylococcus aureus [2]) [µg/mL] | MIC (Staphylococcus aureus [3]) [µg/mL] | MIC (Staphylococcus aureus [4]) [µg/mL] | MIC (Staphylococcus aureus [5]) [µg/mL] | MIC (Staphylococcus aureus [6]) [µg/mL] | MIC (Staphylococcus aureus [7]) [µg/mL]
CC(=O)N[C@@H]1[C@H](Oc2c3cc4cc2Oc2ccc(cc2Cl)[C@@H](O[C@@H]2O[C@@H](CO)[C@@H](O)[C@H](O)[C@@H]2NC(C)=O)[C@@H]2NC(=O)[C@H](NC(=O)[C@@H]4NC(=O)[C@H]4NC(=O)[C@@H](Cc5ccc(c(Cl)c5)O3)NC(=O)[C@H](N)c3ccc(O)c(c3)Oc3cc(O)cc4c3)c3ccc(O)c(c3)-c3c(O[C@H]4O[C@H](CO)[C@@H](O)[C@@H](O)[C@@H]4O)cc(O)cc3[C@@H](C(=O)O)NC2=O)O[C@@H](CO)[C@@H](O)[C@@H]1O | 12 (≈ 6.79 µM) | 24 (≈ 13.6 µM) | 8 (≈ 4.53 µM) | 24 (≈ 13.6 µM) | 12 (≈ 6.79 µM) | 12 (≈ 6.79 µM) | 8 (≈ 4.53 µM)
CN[C@H](CC(C)C)C(=O)N[C@H]1C(=O)N[C@@H](CC(N)=O)C(=O)N[C@H]2C(=O)N[C@H]3C(=O)N[C@H](C(=O)N[C@H](C(=O)O)c4cc(O)cc(O)c4-c4cc3ccc4O)[C@H](O)c3ccc(c(Cl)c3)Oc3cc2cc(c3O[C@@H]2O[C@H](CO)[C@@H](O)[C@H](O)[C@H]2O[C@H]2C[C@](C)(N)[C@H](O)[C@H](C)O2)Oc2ccc(cc2Cl)[C@H]1O [VANCOMYCIN] | 3 (≈ 2.07 µM) | 6 (≈ 4.14 µM) | – | 3 (≈ 2.07 µM) | – | 3 (≈ 2.07 µM) | 6 (≈ 4.14 µM)
